Test results: patent publication US20090076029A1 (Palatin Technologies, Inc., priority 2007, published 2009)
Values joined by “and” are separate entries in the source; they are usually repeats but may differ in a detail not shown here. Identical values can stand only once. Like-named read-outs stand apart in the source and are kept apart here.

How the values were obtained:
[1] = molecular target: T1, MC1-R; assay: Competitive inhibition assay using [I125]-NDP-α-MSH, MC1-R membranes; format: binding, mouse; conditions: for Inhibition at 1 μM (NDP-α-MSH) MC1-R: 1 μM compound
T1 construct: other: 1 μM compound
Experimental: (§1) Competitive inhibition assay using [1125]-NDP-α-MSH. A competitive inhibition binding assay was conducted using membranes prepared from HEK-293 cells transfected to express hMC3-R, hMC4-R or hMC5-R, and from B-16 mouse melanoma cells (containing MC1-R) using 0.2 to 0.4 nM [I^125]-NDP-α-MSH (New England Nuclear) in 50 mM HEPES buffer containing 1 mM MgCl2, 2 mM CaCl2, and 5 mM KCl, at pH 7.2. In certain experiments, HEK-293 cells transfected to express hMC1-R were also employed. The assay tube also contained a chosen concentration of the test compound of this invention, typically a 1 μM concentration, for determining inhibition of the binding of [^1125]-NDP-α-MSH to its receptor. Non-specific binding was measured by inhibition of binding of [I^125]-NDP-α-MSH in the assay with the presence of 1 μM α-MSH.
(§2) The assay mixture was incubated for 90 minutes at room temperature, then filtered and the membranes washed three times with ice cold buffer. The filter was dried and counted in a gamma counter for remaining radioactivity bound to the membranes. 100% specific binding was defined as the difference in radioactivity (cpm) bound to cell membranes in the absence and presence of 1 μM α-MSH. The cpm obtained in presence of test compounds were normalized with respect to 100% specific binding to determine the percent inhibition of [125]-NDP-α-MSH binding. Each assay was conducted in triplicate and the actual mean values are described, with results less than 0% reported as 0%.

[2] = molecular target: T2, hMC3-R; assay: Competitive inhibition assay using [I125]-NDP-α-MSH, hMC3-R membranes; format: binding, human; conditions: read-out: Ki (nM) (NDP-α-MSH) MC3-R
T2 construct: expressed in transfected cells; host or cells: HEK-293
Experimental: as §1, §2

[3] = molecular target: T3, hMC4-R; assay: Competitive inhibition assay using [I125]-NDP-α-MSH, hMC4-R membranes; format: binding, human
T3 construct: expressed in transfected cells; host or cells: HEK-293
Experimental: as §1, §2

[4] = molecular target: T4, hMC5-R; assay: Competitive inhibition assay using [I125]-NDP-α-MSH, hMC5-R membranes; format: binding, human; conditions: read-out: Ki (nM) (NDP-α-MSH) MC5-R
T4 construct: expressed in transfected cells; host or cells: HEK-293
Experimental: as §1, §2

[5] = test system: T3, hMC4-R; format: binding, human
Experimental: Competitive binding assay using [I^125]-AgRP (83-132). Competitive binding studies using [I^125]-AgRP (83-132) were carried out on membranes isolated from cells expressing hMC4-R. The assay was performed in 96 well GF/B Millipore multiscreen filtration plates (MAFB NOB10) pre-coated with 0.5% bovine serum albumin (Fraction V). The assay mixture contained 25 mM HEPES buffer (pH 7.5) with 100 mM NaCl, 2 mM CaCl2, 2 mM MgCl2, 0.3 mM 1,10-phenanthroline, 0.5% bovine serum albumin, cell membranes, radioligand [I^125]-AgRP (83-132) (NEN), and increasing concentrations of compounds in a total volume of 200 μL. Binding was measured at radioligand concentrations of 0.2 nM. After incubating for 1 hour at 37° C., the reaction mixture was filtered and washed with an assay buffer containing 500 mM NaCl. The dried discs were punched out from the plate and counted on a gamma counter. Care was taken to limit the specific binding of the ligand to an amount not exceeding 10% of the counts added to the reaction mixture. Data were analyzed using the Prism Graph-Pad curve fitting software.

[6] = test system: T3, hMC4-R; assay: cAMP functional assay in HEK-293 cells expressing MC4-R (agonist, neutral antagonist/Schild); format: cell-based, human; conditions: for intrinsic activity at MC4-R: NDP-α-MSH maximal stimulation = 1.0; for functional status at MC4-R: mostly at 1 μM
Experimental: (§3) General method for EC50 determination in functional activity assay. Functional evaluation of compounds at melanocortin receptors was performed by measuring the accumulation of intracellular cAMP in HEK-293 cells expressing hMC3-R, hMC4-R or hMC5-R, and in B-16 mouse melanoma cells expressing MC1-R. Cells suspended in Earle's Balanced Salt Solution containing 10 mM HEPES (pH 7.5), 5 mM MgCl2, 1 mM glutamine, 0.1% albumin and 0.6 mM 3-isobutyl-1-methyl-xanthine, a phosphodiesterase inhibitor, were plated in 96 well plates at a density of 0.5×10^5 cells per well. Cells were incubated with the test compounds in the presence or absence of α-MSH for 1 hour at 37° C. cAMP levels in the cell lysates were measured using an EIA kit (Amersham). Data analysis and EC50 values were determined using nonlinear regression analysis with Prism Graph-Pad software.
(§4) Functional status. The agonist/antagonist status with respect to MC1-R, MC-3R, MC4-R and MC5-R of certain compounds of the invention was determined.
Assay for agonist. Evaluation of the molecules to elicit a functional response in HEK-293 cells expressing MC4-R was accomplished by measuring the accumulation of intracellular cAMP following treatment. Confluent HEK-293 cells expressing MC4-R were detached by enzyme free cell suspension buffer. Cells were suspended in Earle's Balanced Salt Solution containing 10 mM HEPES (pH 7.5), 1 mM MgCl2, 1 mM glutamine, 0.5% albumin and 0.3 mM 3-isobutyl-1-methyl-xanthine (IBMX), a phosphodiesterase inhibitor. The cells were plated in 96 well plates at a density of 0.5×10^5 cells per well and pre-incubated for 30 minutes. The cells were then challenged with the test compounds dissolved in DMSO at a concentration range of 0.05-5000 nM in a total assay volume of 200 μL for 1 hour at 37° C. The concentration of DMSO was always held at 1% in the assay mixture. NDP-α-MSH was used as the reference agonist. At the end of the incubation period the cells were disrupted by the addition of 50 μL of lysis buffer from a cAMP EIA kit (Amersham). Complete rupture of the cells was obtained by pipetting the cells multiple times. cAMP levels in the cell lysates were measured after appropriate dilution using the EIA kit (Amersham) method. Data analysis and EC50 values were determined by using nonlinear regression analysis with Prism Graph-Pad software. […] FIG. 1 illustrates typical results, showing the stimulation of cAMP using the compound of Example 11 in HEK-293/MC4-R cells with comparison to NDP-α-MSH.
Assay for Neutral Antagonist. Compounds with a high affinity for binding to MC4-R membranes but with less potency in terms of cAMP accumulation (EC50>1000 nM) and low response ratio (<0.1) were analyzed for their ability to antagonize the stimulatory effect of the agonist NDP-α-MSH. These studies were carried out in HEK-293 cells expressing MC4-R. Cells were incubated with the compounds in the presence of the agonist NDP-α-MSH and the extent of antagonism was measured by the decrease in intracellular cAMP concentrations. Screening the compounds for antagonist activity was performed at a single concentration of NDP-α-MSH (1.0 nM) over a compound concentration range of 0.5-5000 nM.
Experimental details were similar to the analysis for agonistic activity described above. Briefly, cells were pre-incubated for 30 minutes with the test compounds at concentrations between 0.5 nM and 5000 nM. The cells were then stimulated with NDP-α-MSH at a concentration of 1 nM for 1 hour. For Schild's analysis, the interactions were studied using at least 3 concentrations of the compounds, separated by a log unit, over a full range of the agonist (0.005-5000 nM). cAMP levels were measured in the cell lysates after appropriate dilution. Nonlinear regression analysis with Prism Graph-Pad software was used for Schild analysis and to obtain EC50 values. pA2 values were derived from the Schild plot of the data.

[7] = test system: T5, MC1-R; assay: cAMP functional assay, B-16 mouse melanoma cells expressing MC1-R; format: cell-based; conditions: cAMP assay at 1 μM
T5 construct: from B-16 mouse melanoma cells (containing MC1-R); endogenous in cells; host or cells: B-16 mouse melanoma cells
Experimental: as §3, §4

[8] = test system: T2, hMC3-R; assay: cAMP functional assay, HEK-293 cells expressing hMC3-R; format: cell-based, human; conditions: cAMP assay at 1 μM
Experimental: as §3, §4

[9] = test system: T4, hMC5-R; assay: cAMP functional assay, HEK-293 cells expressing hMC5-R; format: cell-based, human; conditions: cAMP assay at 1 μM
Experimental: as §3, §4

[10] = cAMP assay, read-out: EC50 (nM) at MC4-R

Molecule | Ki [1] [nM] | Inhibition at 1 μM (NDP-α-MSH) MC1-R [1] [%] | Ki [2] [nM] | Ki ([3]; MC4-R membranes, Table 1, read-out: Ki (nM) I125-NPD-α-MSH) [nM] | attenuation of binding of α-MSH and AgRP to MC4-R ([3]; both ligands (NDP-α-MSH and AgRP), summary) | Ki ([3]; read-out: Ki (nM) (NDP-α-MSH) MC4-R) | Ki [4] [nM] | Inhibition at 1 μM (AgRP) MC4-R ([5]; 1 μM compound) [%] | Ki ([5]; MC4-R membranes, Table 1, read-out: Ki (nM) I125-AgRP) [nM] | Ki ([5]; read-out: Ki (nM) (AgRP) MC4-R) | functional status (pAg, Ag, Antag, Inactive) ([6]; MC4-R, Table 1) | EC50 ([6]; MC4-R, Table 1, read-out: EC50) [nM] | intrinsic activity at MC4-R [6] | EC50 [6, 10] [nM] | functional status at MC1-R [7] | functional status at MC3-R [8] | functional status at MC5-R [9] | Inhibition at 1 μM (NDP-α-MSH) MC4-R ([3]; 1 μM compound) [%] | pA2 value at MC4-R ([6]; Schild plot vs NDP-α-MSH) | functional status at MC4-R ([6]; cAMP assay)
Cc1ccc(CCN2C[C@H](CCCNC(=N)N)N(C(=O)[C@H](N)Cc3ccc4ccccc4c3)C[C@H]2C)cc1 [Example 5, N-{3-[1-(2(R)-Amino-3-naphthalen-2-yl-propionyl)-5(R)-methyl-4-(2-p-tolyl-ethyl)-piperazin-2(S)-yl]-propyl}-guanidine] | 135 | 32 | 164 | 29 | attenuate the binding of both α-MSH and AgRP to MC4-R | 29 | 448 | 93 | 42 | 42 | pAg (“pAg” means partial agonist) | 370 | 0.6 | 370 | partial agonist (intrinsic activity between 0.1 (10%) and 0.7 (70%) is classified as a partial agonist) | no intrinsic activity (intrinsic activity below 0.1 (10%) is classified as inactive or having no intrinsic activity) | partial agonist (intrinsic activity between 0.1 (10%) and 0.7 (70%) is classified as a partial agonist) | – | – | –
C[C@@H]1CN(C(=O)[C@H](N)Cc2ccc(Cl)cc2Cl)[C@@H](CCCNC(=N)N)CN1CCc1ccc2ccccc2c1 [Example 12, N-{3-[1-[2(R)-Amino-3-(2,4-dichloro-phenyl)-propionyl]-5(R)-methyl-4-(2-naphthalen-2-yl-ethyl)-piperazin-2(S)-yl]-propyl}-guanidine] | 1130 | 20 | – | – | – | – | – | – | – | – | Antag (“Antag” means antagonist) | – | – | – | inactive | inactive | inactive | 99 | 7.52 and 7.7 | antagonist
NH2—(CH2)6—C(═O)-Ser(Bzl)-D-Phe(4-Cl)-Arg-Trp-Asp-NH2 [Example 14] | 760 | 35 | 180 | – | – | – | – | – | – | – | pAg (“pAg” means partial agonist) | 568 | 0.5 | 568 | inactive | partial agonist (intrinsic activity between 0.1 (10%) and 0.7 (70%) is classified as a partial agonist) | inactive | – | – | partial agonist (intrinsic activity between 0.1 (10%) and 0.7 (70%) is classified as a partial agonist)
